# Source: patent US20040072992A1, “Novel peptide capable of specifically acting on biological membrane” (priority 2002, published 2004)
# Where “and” joins values, the source holds several entries; their conditions need not be identical. Equal values may be shown once. Where no end group is shown, it is not given here.
# Key:
# [1] = Anti-cancer activity, 5637 cell; type: cell-based, human; details: bladder cancer; for CC50 at 2 days: human, read-out: LC50; for CC50: read-out: LC50 (the source's name)
# Method: (§1) Anti-cancer activity was evaluated using a method complying with an anti-cancer agent screening method (1990) using a human cancer cell panel which has been carried out by U.S. National Cancer Institute (NCI). Cells employed in experiments were from the following three cell lines: HL60 cell (cell line derived from human leukemia); HeLa cell (cell line derived from human uterine cancer); and HCT116 cell (cell line derived from human large intestine cancer). Media suitable for use of these cells are RPMI-1640 medium containing 10% FCS; a MEM medium containing 10% CS; and McCoy5A medium containing 10% FCS, respectively.
# (§2) Cells suspended in themedium wereplated into 96-well plates at a concentration of 1×10^5 cells/cm^2, followed by incubation overnight. Peptide solutions containing various concentrations of the peptide of the present invention were added to the plates, followed by incubation at 37° C. for 2 days in a CO2 incubator. During culturing, the growth of the cells was measured by colorimetry using sulforhodamine B and the peptide concentration was categorized into any of GI50 which is the concentration at which the growth is inhibited by 50% as compared to the control; TGI which is the concentration at which the number of cells is seemingly not increased or decreased from the time of addition of the peptide of the present invention, i.e., the growth is suppressed to the same number of cells as when the peptide was added: and LC50 which is the concentration at which the number of cells is decreased to 50% of that at the time of addition of the peptide.
# (§3) Thereafter, various cancer cells were employed to confirm the anti-cancer activity of mast21R. Each cancer cell was cultured in RPMI-1640 medium containing 10% FCS.
# [2] = Anti-cancer activity, EJ-1 cell; type: cell-based, human; details: for CC50 at 2 days: human, EJ-1 cells (bladder cancer cells), read-out: LC50; for CC50: bladder cancer, read-out: LC50 (the source's name)
# Method: as §1, §2, §3
# [3] = Anti-cancer activity, KATO III cell; type: cell-based, human; details: for CC50 at 2 days: human, KATO III cells (stomach cancer cells), read-out: LC50; for CC50: stomach cancer, read-out: LC50 (the source's name)
# Method: as §1, §2, §3
# [4] = Anti-cancer activity, SH-10-TC; type: cell-based, human; details: for LC50 at 2 days: human, SH-10-TC cells (stomach cancer cells); for LC50: stomach cancer
# Method: as §1, §2, §3
# [5] = Anti-cancer activity, SR-BR-3; type: cell-based, human; details: SR-BR-3, breast cancer; for CC50 at 2 days: human, SR-BR-3 cells (breast cancer cells), read-out: LC50; for CC50: read-out: LC50 (the source's name)
# Method: as §1, §2, §3
# [6] = Anti-cancer activity, MCF7; type: cell-based, human; details: for LC50 at 2 days: human, MCF7 cells (breast cancer cells); for LC50: MCF7, breast cancer
# Method: as §1, §2, §3
# [7] = Anti-cancer activity, A549; type: cell-based, human; details: A549, lung cancer; for CC50 at 2 days: human, read-out: LC50; for CC50: read-out: LC50 (the source's name)
# Method: as §1, §2, §3
# [8] = Anti-cancer activity, LK-2; type: cell-based, human; details: LK-2, lung cancer; for CC50 at 2 days: human, LK-2 cells (lung cancer cells), read-out: LC50; for CC50: read-out: LC50 (the source's name)
# Method: as §1, §2, §3
# [9] = Anti-cancer activity, EBC-1; type: cell-based, human; details: EBC-1, lung cancer; for CC50 at 2 days: human, EBC-1 cells (lung cancer cells), read-out: LC50; for CC50: read-out: LC50 (the source's name)
# Method: as §1, §2, §3
# [10] = Anti-cancer activity, PC-3; type: cell-based, human; details: PC-3, prostate cancer; for CC50 at 2 days: human, PC-3 cells (prostate cancer cells), read-out: LC50; for CC50: read-out: LC50 (the source's name)
# Method: as §1, §2, §3
# [11] = Anti-cancer activity, DU-145; type: cell-based, human; details: DU-145, prostate cancer; for CC50 at 2 days: human, read-out: LC50; for CC50: read-out: LC50 (the source's name)
# Method: as §1, §2, §3
# [12] = Anti-cancer activity, A172; type: cell-based, human; details: A172, glioblastoma; for CC50 at 2 days: human, read-out: LC50; for CC50: read-out: LC50 (the source's name)
# Method: as §1, §2, §3
# [13] = Anti-cancer activity, colo205; type: cell-based, human; details: colo205, large intestine cancer; for CC50 at 2 days: human, read-out: LC50; for CC50: read-out: LC50 (the source's name)
# Method: as §1, §2, §3
# [14] = Anti-cancer activity, HCT-15; type: cell-based, human; details: HCT-15, large intestine cancer; for CC50 at 2 days: human, HCT-15 cells (large intestine cancer cells), read-out: LC50; for CC50: read-out: LC50 (the source's name)
# Method: as §1, §2, §3
# [15] = Anti-cancer activity, D98-AH2; type: cell-based, human; details: for CC50 at 2 days: human, D98-AH2 cells (uterine cancer cells), read-out: LC50; for CC50: D98-AH2, uterine cancer, read-out: LC50 (the source's name)
# Method: as §1, §2, §3
# [16] = Anti-cancer activity, NIH OVCAR-3; type: cell-based, human; details: NIH OVCAR-3, ovarian cancer; for CC50 at 2 days: human, NIH OVCAR-3 cells (ovarian cancer cells), read-out: LC50; for CC50: read-out: LC50 (the source's name)
# Method: as §1, §2, §3
# [17] = Anti-cancer activity, ACHN; type: cell-based, human; details: for CC50 at 2 days: human, ACHN cells (kidney cancer cells), read-out: LC50; for CC50: kidney cancer, read-out: LC50 (the source's name)
# Method: as §1, §2, §3
# [18] = test system: Erwinia carotovora (NBRC3380); test: Antibacterial activity against plant pathogenic bacteria; type: cell-based; details: 30° C., 16 to 24 h
# Method: Mast21, mast21R, ALR6, and KVL6 were evaluated with respect to antibacterial activity against Erwinia carotovora (NBRC3380) which is a plant pathogenic bacterium causing soft rot. Specifically, a minimum concentration of a peptide capable of inhibiting the growth of bacteria was determined using microtiter plates. Bacteria were cultured for 16 h in culture medium (Difco Nutrient Broth 8 g, NaCl 5 g/L, pH 7.0), followed by measurement of absorbance at A600. Each bacterial strain was diluted into a final concentration of 1×10^6 CFU/ml. For each peptide, 5 mM aqueous solution was prepared, and thereafter, was subjected to serial dilution. The peptide serial dilutions (50 μl for each) were added to respective wells of the microplate to which 50 μl of the bacterial solution had been added (final cell concentration: 5×10^5 CFU/ml, final peptide concentration: 0 to 50 μM). […] The unit of concentration described in Table 9 is μM.
# [19] = Anti-cancer activity, HCT116 cell; type: cell-based, human; details: sulforhodamine B
# Method: as §1
# (§4) Cells suspended in themedium wereplated into 96-well plates at a concentration of 1×10^5 cells/cm^2, followed by incubation overnight. Peptide solutions containing various concentrations of the peptide of the present invention were added to the plates, followed by incubation at 37° C. for 2 days in a CO2 incubator. […]
# [20] = Anti-cancer activity, HeLa cell; type: cell-based, human; details: sulforhodamine B
# Method: as §1, §4
# [21] = Anti-cancer activity, HL60 cell; type: cell-based, human; details: sulforhodamine B
# Method: as §1, §4
# B. subtilis IFO13722 = details: IFO13722, 18 h
# B. sereus IFO3457 = details: 18 h
# S. aureus IFO13276 = details: IFO13276, 18 h
# S. aureus JCM2413 = details: JCM2413, 18 h
# E. coli JCM1649 = details: JCM1649, 18 h
# E. coli CR-3 = details: CR-3, 18 h
# E. coli CE-273 = details: CE-273, 18 h
# S. enteritidis ATCC1891 = details: ATCC1891, 18 h
# S. enteritidis ATC14028 = details: ATC14028, 18 h
# erythrocytes = details: red cells of human, 100 μM
# [22] = 2 days, read-out: LC50 (the source's name)
sequence,measurement,setting,value
"ALRALRALRALRALRALR [ALR6, ALRALRALRALRALRALR]",CC50 at 2 days,[1],> 100 µM
same,CC50 at 2 days,[2],> 100 µM
same,CC50 at 2 days,[3],> 100 µM
same,LC50 at 2 days,[4],> 100 µM
same,CC50 at 2 days,[5],100 µM
same,LC50 at 2 days,[6],80 µM
same,CC50 at 2 days,[7],> 100 µM
same,CC50 at 2 days,[8],> 100 µM
same,CC50 at 2 days,[9],> 100 µM
same,CC50 at 2 days,[10],> 100 µM
same,CC50 at 2 days,[11],> 100 µM
same,CC50 at 2 days,[12],> 100 µM
same,CC50 at 2 days,[13],> 100 µM
same,CC50 at 2 days,[14],> 100 µM
same,CC50 at 2 days,[15],> 100 µM
same,CC50 at 2 days,[16],> 100 µM
same,CC50 at 2 days,[17],> 100 µM
same,MIC,[18],3.1 μM and 3.2 μg/ml
RNWRGIAGMARRLLGRNWRLM [mast21R],CC50,[19]; [22],2000 nM
same,CC50,[20]; [22],20 µM
same,LC50,[21]; 2 days,20 µM
same,CC50,[1],50 µM
same,CC50,[2],20 µM
same,CC50,[3],50 µM
same,LC50,[4],60 µM
same,CC50,[5],90 µM
same,LC50,[6],90 µM
same,CC50,[7],50 µM
same,CC50,[8],> 100 µM
same,CC50,[9],70 µM
same,CC50,[10],60 µM
same,CC50,[11],90 µM
same,CC50,[12],50 µM
same,CC50,[13],50 µM
same,CC50,[14],30 µM
same,CC50,[15],50 µM
same,CC50,[16],80 µM
same,CC50,[17],30 µM
same,MIC,[18],1.6 μM and 2 μg/ml
same,MIC,B. subtilis IFO13722,1.56 µM
same,MIC,B. sereus IFO3457,3.1 µM
same,MIC,S. aureus IFO13276,6.25 µM
same,MIC,S. aureus JCM2413,6.25 µM
same,MIC,E. coli JCM1649,3.1 µM
same,MIC,E. coli CR-3,1.6 µM
same,MIC,E. coli CE-273,3.1 µM
same,MIC,S. enteritidis ATCC1891,3.1 µM
same,MIC,S. enteritidis ATC14028,3.1 µM
same,Hemolytic property (relative value),erythrocytes,13%
"KVLKVLKVLKVLKVL [KVL5, KVLKVLKVLKVLKVL]",CC50 at 2 days,"[19]; human, read-out: LC50",> 100 µM
same,CC50 at 2 days,"[20]; human, HeLa cells (uterine cancer cell line), read-out: LC50",> 100 µM
same,LC50 at 2 days,"[21]; human, HL60 cells (leukemia cell line)",> 100 µM
same,MIC,B. subtilis IFO13722,25 µM
same,MIC,B. sereus IFO3457,200 µM
same,MIC,S. aureus IFO13276,100 µM
same,MIC,S. aureus JCM2413,200 µM
same,MIC,E. coli JCM1649,12.5 µM
same,MIC,E. coli CR-3,25 µM
same,MIC,E. coli CE-273,6.3 µM
same,MIC,S. enteritidis ATCC1891,25 µM
same,MIC,S. enteritidis ATC14028,100 µM
"KNWKGIAGMAKKLLGKNWKLM [mast21, reference compound]",CC50,[1],> 100 µM
same,CC50,[2],70 µM
same,CC50,[3],> 100 µM
same,LC50,[4],90 µM
same,CC50,[5],90 µM
same,LC50,[6],100 µM
same,CC50,[7],70 µM
same,CC50,[8],> 100 µM
same,CC50,[9],100 µM
same,CC50,[10],100 µM
same,CC50,[11],> 100 µM
same,CC50,[12],> 100 µM
same,CC50,[13],> 100 µM
same,CC50,[14],80 µM
same,CC50,[15],> 100 µM
same,CC50,[16],100 µM
same,CC50,[17],80 µM
same,MIC,[18],3.1 μM and 3.7 μg/ml
same,MIC,B. subtilis IFO13722,6.3 µM
same,MIC,B. sereus IFO3457,3.1 µM
same,MIC,S. aureus IFO13276,25 µM
same,MIC,S. aureus JCM2413,12.5 µM
same,MIC,E. coli JCM1649,6.3 µM
same,MIC,E. coli CR-3,6.3 µM
same,MIC,E. coli CE-273,3.1 µM
same,MIC,S. enteritidis ATCC1891,6.3 µM
same,MIC,S. enteritidis ATC14028,6.3 µM
same,Hemolytic property (relative value),erythrocytes,5.4%
"KVLKVLKVLKVLKVLKVL [KVL6, KVLKVLKVLKVLKVLKVL]",CC50 at 2 days,[1],100 µM
same,CC50 at 2 days,[2],90 µM
same,CC50 at 2 days,[3],100 µM
same,LC50 at 2 days,[4],60 µM
same,CC50 at 2 days,[5],100 µM
same,LC50 at 2 days,[6],100 µM
same,CC50 at 2 days,[7],70 µM
same,CC50 at 2 days,[8],> 100 µM
same,CC50 at 2 days,[9],> 100 µM
same,CC50 at 2 days,[10],> 100 µM
same,CC50 at 2 days,[11],> 100 µM
same,CC50 at 2 days,[12],> 100 µM
same,CC50 at 2 days,[13],100 µM
same,CC50 at 2 days,[14],80 µM
same,CC50 at 2 days,[15],> 100 µM
same,CC50 at 2 days,[16],> 100 µM
same,CC50 at 2 days,[17],80 µM
same,MIC,[18],3.1 μM and 3.2 μg/ml
